# In patent US7511065B2, “Mixed lineage kinase modulators” (Eli Lilly and Company, priority 2002, dated 2009):
# Biological target: T1, MLK-7 (Homo sapiens, UniProt Q9NYL2)
# T1 construct: GST; His tag; made in house; host or cells: Sf9 insect cells (baculovirus, pVL1392)
# Assay: In vitro assay of purified MLK-7 kinase activity (33P transfer from ATP to myelin basic protein)
# Format: biochemical
# Conditions: recombinant GST-tagged MLK-7 at 1 nm, 30 uM ATP, 5 uM MBP substrate, 2 hours room temperature; read-out: MLK7 IC50
# Source text: In Vitro Assay of Purified Mixed Lineage Kinase 7 (MLK-7) Activity:
# Briefly, recombinant glutathione-s-transferase (GST) tagged MLK-7 is expressed in Sf9 cells using a recombinant baculovirus created using baculovirus transfer vector pVL1392 modified to contain a GST and histidine tag. The recombinant protein is purified over a glutathione column and subsequently used for in vitro kinase assays with myelin basic protein (MBP) as the substrate for phosphorylation. The in vitro kinase reaction is run with recombinant MLK-7 at 1 nm and various concentrations of test compound in a reaction mixture containing 2 mM DTT, 30 uM ATP, 5 mM MgCl2, 5 uM MBP, 4% DMSO, 5 uCi 33P in 44 mM HEPES, (pH 7.4). The reaction is carried out for 2 hours at room temperature and then stopped by the addition of phosphoric acid to 5.5%. The phosphorylated MBP is collected on a filter and radioactivity associated with the membrane measured using a scintillation counter. Inhibitors are identified by the ability to reduce the transfer of radioactive phosphate from ATP to MBP compared to controls run without test compound.
# IC50 values, defined as the concentration of test compound required to decrease the transfer of radioactive phosphate from ATP to MBP by 50%, are then determined. Ki values (which refers to the dissociation constant of an enzyme-antagonist complex and serves as an index of ligand binding) for each respective test compound can also be calculated by application of the Cheng-Prusoff equation as described in Cheng et al., Relationship Between The Inhibition Constant (Ki) and The Concentration of Inhibitor Which Causes 50% Inhibition (IC50) of an Enzymatic Reaction, Biochem. Pharmacol., 22: […]; (1973).
# Representative compounds of the present invention have an IC50 in the MLK-7 kinase assay of ≦10,000 nM Table I (see infra.) provides IC50 data from the afore mentioned MLK-7 kinase assay for a representative sample of the exemplified compounds of the present invention.
row,Compound,IC50
1,"2-[4-(2-Pyridin-2-yl-5,6-dihydro-4H-pyrrolo[1,2-b]pyrazol-3-yl)quinolin-7-yl]phenyl}benzamide Trifluoroacetic Acid [Example 29]",≤ 10000 nM
2,"4-[4-(2-Pyridin-2-yl-5,6-dihydro-4H-pyrrolo[1,2-b]pyrazol-3-yl]phenylamine Ditrifluoroacetic Acid [Example 10]",≤ 100 nM
3,"5-[4-(2-pyridin-2-yl-5,6-dihydro-4H-pyrrolo[1,2-b]pyrazol-3-yl)-7-pyrimidin-5-yl-quinolin-7-yl]pyrimidin-2-ylamine Difluoroacetic Acid [Example 89]",≤ 1000 nM
4,"7-(3,5-Dichlorophenyl)-4-(2-Pyridin-2-yl-5,6-dihydro-4H-pyrrolo[1,2-b]pyrazol-3-yl)quinoline Trifluoroacetic Acid [Example 31]",≤ 1000 nM
5,"7-(3-Nitrophenyl)-4-(2-pyridin-2-yl-5,6-dihydro-4H-pyrrolo[1,2-b]pyrazol-3-yl)quinoline Trifluoroacetic Acid [Example 49]",≤ 100 nM
6,"7-(4-Benzo[b]thiophen-3-yl-phenyl)-4-(2-pyridin-2-yl-5,6-dihydro-4H-pyrrolo[1,2-b]pyrazol-3-yl)-quinoline Trifluoroacetic Acid [Example 54]",≤ 1000 nM
7,"7-(4-Methyl-3-nitro-phenyl)-4-(2-pyridin-2-yl-5,6-dihydro-4H-pyrrolo[1,2-b]pyrazol-3-yl)-quinoline Trifluoroacetic Acid [Example 52]",≤ 100 nM
8,"CC(C)(C)SCCNC(=O)c1ccc(-c2ccc3c(-c4c(-c5ccccn5)nn5c4CCC5)ccnc3c2)cc1 (racemic) [Example 127, (rac) N-(2-tert-Butylsulfanyl-ethyl)-4-[4-(2-pyridin-2-yl-5,6-dihydro-4H-pyrrolo[1,2-b]pyrazol-3-yl)-quinolin-7-yl]-benzamide]",≤ 1000 nM
9,"O=C(NC1CCS(=O)(=O)C1)c1ccc(-c2ccc3c(-c4c(-c5ccccn5)nn5c4CCC5)ccnc3c2)cc1 (racemic) [Example 129, (rac)-N-(1,1-Dioxo-tetrahydro-1λ^6-thiophen-3-yl)-4-[4-(2-pyridin-2-yl-5,6-dihydro-4H-pyrrolo[1,2-b]pyrazol-3-yl)-quinolin-7-yl]-benzamide]",≤ 100 nM
10,"Cc1csc(-c2ccc3c(-c4c(-c5ccccn5)nn5c4CCC5)ccnc3c2)c1 [Example 2, 7-(4-methylthiophen-2-yl)-4-(2-pyridin-2-yl-5,6-dihydro-4H-pyrrolo[1,2-b]pyrazol-3-yl)quinoline Trifluoroacetic Acid]",≤ 100 nM
11,CC(=O)Nc1ccc(-c2ccc3c(-c4c(-c5ccccn5)nn5c4CCC5)ccnc3c2)cc1 [Example 3],≤ 100 nM
12,"c1ccc(-c2ccc3c(-c4c(-c5ccccn5)nn5c4CCC5)ccnc3c2)cc1 [Example 4, 7-Phenyl-4-(2-pyridin-2-yl-5,6-dihydro-4H-pyrrolo[1,2-b]pyrazol-3-yl)quinoline Trifluoroacetic Acid]",≤ 100 nM
13,Oc1ccccc1-c1ccc2c(-c3c(-c4ccccn4)nn4c3CCC4)ccnc2c1 [Example 5],≤ 1000 nM
14,"Oc1cccc(-c2ccc3c(-c4c(-c5ccccn5)nn5c4CCC5)ccnc3c2)c1 [Example 6, 3-[4-(2-Pyridin-2-yl-5,6-dihydro-4H-pyrrolo[1,2-b]pyrazol-3-yl)quinolin-7-yl]phenol Trifluoroacetic Acid]",≤ 100 nM
15,"Oc1ccc(-c2ccc3c(-c4c(-c5ccccn5)nn5c4CCC5)ccnc3c2)cc1 [Example 7, 4-[4-(2-Pyridin-2-yl-5,6-dihydro-4H-pyrrolo[1,2-b]pyrazol-3-yl)quinolin-7-yl]phenol Trifluoroacetic Acid]",≤ 100 nM
16,"Nc1ccccc1-c1ccc2c(-c3c(-c4ccccn4)nn4c3CCC4)ccnc2c1 [Example 8, 2-[4-(2-Pyridin-2-yl-5,6-dihydro-4H-pyrrolo[1,2-b]pyrazol-3-yl)quinolin-7-yl]phenylamine Ditrifluoroacetic Acid]",≤ 1000 nM
17,Nc1cccc(-c2ccc3c(-c4c(-c5ccccn5)nn5c4CCC5)ccnc3c2)c1 [Example 9],≤ 100 nM
18,"Clc1cccc(-c2ccc3c(-c4c(-c5ccccn5)nn5c4CCC5)ccnc3c2)c1 [Example 11, 7-(3-Chlorophenyl)-4-(2-Pyridin-2-yl-5,6-dihydro-4H-pyrrolo[1,2-b]pyrazol-3-yl)quinoline Trifluoroacetic Acid]",≤ 100 nM
19,"Clc1ccc(-c2ccc3c(-c4c(-c5ccccn5)nn5c4CCC5)ccnc3c2)cc1 [Example 12, 7-(4-Chlorophenyl)-4-(2-pyridin-2-yl-5,6-dihydro-4H-pyrrolo[1,2-b]pyrazol-3-yl)quinoline Trifluoroacetic Acid]",≤ 100 nM
20,"O=[N+]([O-])c1ccc(-c2ccc3c(-c4c(-c5ccccn5)nn5c4CCC5)ccnc3c2)cc1 [Example 14, 7-(4-Nitrophenyl)-4-(2-pyridin-2-yl-5,6-dihydro-4H-pyrrolo[1,2-b]pyrazol-3-yl)quinoline Trifluoroacetic Acid]",≤ 100 nM
21,"CS(=O)(=O)Nc1cccc(-c2ccc3c(-c4c(-c5ccccn5)nn5c4CCC5)ccnc3c2)c1 [Example 15, N-{3-[4-(2-Pyridin-2-yl-5,6-dihydro-4H-pyrrolo[1,2-b]pyrazol-3-yl)-quinolin-7-yl]-phenyl}methanesulfomamide Trifluoroacetic Acid]",≤ 100 nM
22,"CS(=O)(=O)Nc1ccc(-c2ccc3c(-c4c(-c5ccccn5)nn5c4CCC5)ccnc3c2)cc1 [Example 16, N-{4-[4-(2-Pyridin-2-yl-5,6-dihydro-4H-pyrrolo[1,2-b]pyrazol-3-yl)quinolin-7-yl]phenyl}methanesulfonamide Trifluoroacetic Acid]",≤ 100 nM
23,"CCOc1ccccc1-c1ccc2c(-c3c(-c4ccccn4)nn4c3CCC4)ccnc2c1 [Example 17, 7-(2-Ethoxyphenyl)-4-(2-pyridin-2-yl-5,6-dihydro-4H-pyrrolo[1,2-b]pyrazol-3-yl)quinoline Trifluoroacetic Acid]",≤ 10000 nM
24,"CCOc1cccc(-c2ccc3c(-c4c(-c5ccccn5)nn5c4CCC5)ccnc3c2)c1 [Example 18, 7-(3-Ethoxyphenyl)-4-(2-pyridin-2-yl-5,6-dihydro-4H-pyrrolo[1,2-b]pyrazol-3-yl)quinoline Trifluoroacetic Acid]",≤ 100 nM
25,"CCOc1ccc(-c2ccc3c(-c4c(-c5ccccn5)nn5c4CCC5)ccnc3c2)cc1 [Example 19, 7-(4-Ethoxyphenyl)-4-(2-pyridin-2-yl-5,6-dihydro-4H-pyrrolo[1,2-b]pyrazol-3-yl)quinoline Trifluoroacetic Acid]",≤ 100 nM
26,"COc1ccc(-c2ccc3c(-c4c(-c5ccccn5)nn5c4CCC5)ccnc3c2)cc1 [Example 20, 7-(4-Methoxyphenyl)-4-(2-pyridin-2-yl-5,6-dihydro-4H-pyrrolo[1,2-b]pyrazol-3-yl)quinoline Trifluoroacetic Acid]",≤ 100 nM
27,"Cc1cc(-c2ccc3c(-c4c(-c5ccccn5)nn5c4CCC5)ccnc3c2)ccc1F [Example 21, 7-(4-Fluoro-3-methylphenyl)-4-(2-pyridin-2-yl-5,5-dihydro-4H-pyrrolo[1,2-b]pyrazol-3-yl)quinoline Trifluoroacetic Acid]",≤ 1000 nM
28,"Cc1cc(F)ccc1-c1ccc2c(-c3c(-c4ccccn4)nn4c3CCC4)ccnc2c1 [Example 22, 7-(4-Fluoro-2-methylphenyl)-4-(2-pyridin-2-yl-5,6-dihydro-4H-pyrrolo[1,2-b]pyrazol-3-yl)quinoline Trifluoroacetic Acid]",≤ 1000 nM
